The values that follow come from publication PMC12394552, “Multi-biological activity evaluation of Sn(П), Zn(П) and Fe(П) complexes based on thiocarbohydrazide schiff bases: synthesis, spectroscopic investigations and fluorescence studies” (Scientific Reports, 2025).

One assay concerns PC3 prostate malignancy. Description: SRB antiproliferative assay. The note with it: Homo sapiens, 72 h, read-out: Cytotoxicity (as of %Control) IC50 value, PC3 prostate malignancy. The class given is cell-based, human. The protocol:
(§1) All malignancy cell lines were cultured in high glucose DMEM (Bio Whittaker, Verviers, Belgium) containing 10% FBS, 4-(2-hydroxyethyl)-1-piperazineethanesulfonic acid (HEPES) Buffer (10 mM), L-glutamine (2 mM), gentamicin (50 µg/mL), penicillin (100 U/mL), and streptomycin sulfate ([…]) from Sigma (St. Luis, MO, USA) whereas Sulforhodamine B was from Santa Cruz Biotechnology (Inc. Texas, USA). Surviving cancer cell lines provide numerous advantages; they provide a pure and continuous supply of cells, thus overcoming any ethical barriers concerning human tissue usage, and are cost-effective. For cytotoxicity screening, adherent monolayers of all procured malignancies’ cell lines were examined. Periodontal ligament fibroblasts (PDL) were used to determine selective cytotoxicity.
(Sulforhodamine B stains cellular protein and so reports cell mass.)

In assay [1] the test system is Staphylococcus aureus ATCC 6538. Description: MIC determination, broth microdilution (EUCAST adapted). It is filed as cell-based. Conditions: ATCC6538, read-out: S. aureus MIC value. How it is done: (§2) The compounds were tested against Gram-positive bacteria (Staphylococcus aureus ATCC 6538), Gram-negative bacteria (Escherichia coli ATCC 8739) and yeast (Candida albicansATCC10231). […] For bacterial strains, the EUCAST (2025) method was adapted. A few colonies of each bacterial culture previously grown on Mueller-Hinton agar for 24–48 h were suspended in normal saline and adjusted to 0.5 McFarland (1.5 × 10^8 CFU/mL). A 1/10 dilution was prepared in Mueller-Hinton broth (MHB) for the inoculation. In the wells of a 96-well flat-bottom microtiter plate, double serial dilutions of each compound were prepared in MHB. Each well was inoculated with the bacteria to achieve ca. 5 × 10^5 CFU/mL, and the plates were incubated at 37 °C overnight. Positive control (bacteria in culture medium only) and negative control (culture medium) were prepared. Each compound was tested in duplicate. After incubation, the plates were inspected visually for growth inhibition. To test the antimicrobial activity of DMSO, double serial dilutions of DMSO in broth medium were prepared and processed as the samples, but without the addition of the compounds. The antibacterial drug ciprofloxacin was used as a reference for comparison.
(§3) For Candida albicans, the same procedure applied to bacteria was used, except after inoculation, the plates were incubated at 35 °C for 24 h, and after incubation, the absorbance was measured at 530 nm using a plate reader. […] The absorbance of the wells was corrected by subtracting the absorbance of the blank. […] The antifungal drug fluconazole was used as a reference for comparison.
On the technique in general: Broth dilution looks for growth in wells or tubes with falling amounts of substance.

Assay [2] deals with Escherichia coli ATCC 8739. The assay is described as above. It is filed as cell-based. Conditions: ATCC8739, read-out: E. coli MIC value. The protocol: as §2, §3
In assay [3] the test system is Periodontal ligament fibroblasts (PDL). Description: SRB selective cytotoxicity in normal fibroblasts. The class given is cell-based. The note with it: Fibroblast. How it is done:
as §1

The test system of a further assay is RAW 264.7 macrophages. Description: SRB cytotoxicity on RAW 264.7 viability. It is filed as cell-based. Conditions: Mus musculus, RAW264.7, read-out: RAW 264.7 viability IC50 value. How it is done:
as §1
RAW 264.7 mouse macrophage cell line (ATCC® TIB-71) were cultured in high glucose DMEM supplemented with 10% (FBS), penicillin (100 U/mL), streptomycin (100 µg/mL), and L-glutamate (100 µg/mL) in a 37 °C humidified atmosphere with 95% air and 5% CO2. Confluent macrophages (2 × 10^5/well) were incubated with inflammation-priming lipopolysaccharide (LPS; Sigma, St. Luis, MO, USA) with either indomethacin as the reference agent[39] or treatment compounds at different concentrations (1.563-200 µM). Griess reagent was mixed with aliquots of cell culture media and incubated at R.T. for 10 min. Absorbance at 550 nm was determined using a microplate reader (Spectro Scan 80D UV-VIS spectrophotometer (Sedico Ltd., Nicosia, Cyprus). The nitrite concentration was determined by comparison with a sodium nitrite standard curve. SRB cytotoxicity protocol was performed for evaluation of the effect of the studied test compounds on RAW 264.7 viability.

For assay [4], the system named is Candida albicans ATCC10231. Kind of assay: MIC determination, broth microdilution, absorbance 530 nm. The class given is cell-based. The note with it: ATCC10231, 24 h, read-out: C. albicans MIC value at 50% inhibition. The protocol:
as §2, §3

In assay [5] the test system is HT29 colorectal cancer cell line. Description: SRB antiproliferative assay. The class given is cell-based. The note with it: Homo sapiens, HT-29, 72 h, read-out: Cytotoxicity (as of %control) IC50 value, HT29. How it is done: as §1
Assay [6] relates to SW620 colorectal cancer cell line. Description: SRB antiproliferative assay. The class given is cell-based. The note with it: Homo sapiens, SW-620, 72 h; read-out: Cytotoxicity (as of %control) IC50 value, SW620. The protocol: as §1
The test system of assay [7] is HCT116 colorectal cancer cell line. Kind of assay: SRB antiproliferative assay. It is filed as cell-based. Conditions: Homo sapiens, HCT-116, 72 h, read-out: Cytotoxicity (as of %control) IC50 value, HCT116. How it is done:
as §1

The test system of the next assay is A375 skin melanoma. Description: SRB antiproliferative assay. The class given is cell-based. The note with it: Homo sapiens, A-375, 72 h; read-out: Cytotoxicity (as of %Control) IC50 value, A375 skin melanoma. How it is done:
as §1

Assay [8] concerns CACO2 colorectal cancer cell line. Kind of assay: SRB antiproliferative assay. It is filed as cell-based. Conditions: Homo sapiens, Caco-2, 72 h, read-out: Cytotoxicity (as of %control) IC50 value, CACO2. The protocol: as §1
The next assay relates to U87 glioblastoma. Kind of assay: SRB antiproliferative assay. The class given is cell-based. The note with it: Homo sapiens, 72 h, read-out: Cytotoxicity (as of %Control) IC50 value, U87 Gliobalstoma. How it is done:
as §1

A short description of assay [9]: DPPH free radical scavenger assay. Conditions: values given in µM; 1 h incubation, 517 nm; test range 6.25–200 µM; mean ± SD n = 4. From the text: This method depends on the reduction of the radicals, resulting in a color change from oxidized purple to reduced yellow. Principally, Diphenyl-2-picryl-hydrazyl (DPPH) undergoes reduction in methanol (MeOH) solution, in the presence of a hydrogen-donating compound, due to the formation of the non-radical form DPPH-H. This color change can be quantitatively measured using a 515–520 nm spectrophotometer. In contrast to other radical scavenging assays, a DPPH radical is stable and can provide reproducible spectroscopic values[41],[42]. A DPPH solution (0.2 mM) was diluted with MeOH and then mixed with treatment compounds as well as ascorbic acid in a concentration ratio of 1:1 using a 96-well plate (so that a final concentration range 6.25–200 µM was obtained for test agents); the treated solution was incubated one hour isolated from light. Finally, a change in absorbance at 517 nm wavelength was measured using a microplate reader (Bio-Tek Instrument, USA). Ascorbic acid was the robust and classical standard radical scavenging reference agent for comparison purposes[43],[44]. The calculation of the DPPH radical scavenging activity inhibition was determined by the following equation, where A represents photometric absorbance: in % = (A control – A sample) / A control x 100%)[45].
A general note: DPPH is a stable violet radical that fades when it is reduced.

In brackets after ≈: the same amount, converted by molar mass.

As to `COc1ccc(/C=N/NC(=S)N/N=C/c2ccc(OC)cc2)cc1` [L2, 1,5-bis (4-methoxyanisaldehyde) thiocarbohydrazine], the IC50 (in general, the point on the concentration scale where inhibition reaches its midpoint) is > 200 µM in the assay on PC3 prostate malignancy; > 200 µM in assay [3]; > 200 µM in the assay with RAW 264.7 macrophages; > 200 µM in assay [5]; 117 ± 3.81 µM in assay [6]; > 200 µM in [7]. For the same molecule, the 50% inhibitory concentration (IC50) with A375 skin melanoma was > 200 µM; in assay [8], > 200 µM; with U87 glioblastoma it was > 200 µM; in assay [9] it was 18.1 ± 2.04 µM. For the same molecule, the MIC (as a rule, the smallest concentration in the dilution series that meets the test's criterion for growth inhibition) is 15.6 µg/mL (≈ 45.6 µM) in [1], 31.3 µg/mL (≈ 91.4 µM) in assay [2] and 31.3 µg/mL (≈ 91.4 µM) in [4].
